{"source": "the kinase profiling compilation of Christmann-Franck et al. (2016)", "conditions_in_all_cases": "compound 10.0 µM", "key": {"[1]": {"molecular_target": "PRKD1 (human) (UniProt Q15139)"}, "[2]": {"molecular_target": "EPHB2 (human) (UniProt P29323)", "sequence (P29323 whole entry, looked up)": "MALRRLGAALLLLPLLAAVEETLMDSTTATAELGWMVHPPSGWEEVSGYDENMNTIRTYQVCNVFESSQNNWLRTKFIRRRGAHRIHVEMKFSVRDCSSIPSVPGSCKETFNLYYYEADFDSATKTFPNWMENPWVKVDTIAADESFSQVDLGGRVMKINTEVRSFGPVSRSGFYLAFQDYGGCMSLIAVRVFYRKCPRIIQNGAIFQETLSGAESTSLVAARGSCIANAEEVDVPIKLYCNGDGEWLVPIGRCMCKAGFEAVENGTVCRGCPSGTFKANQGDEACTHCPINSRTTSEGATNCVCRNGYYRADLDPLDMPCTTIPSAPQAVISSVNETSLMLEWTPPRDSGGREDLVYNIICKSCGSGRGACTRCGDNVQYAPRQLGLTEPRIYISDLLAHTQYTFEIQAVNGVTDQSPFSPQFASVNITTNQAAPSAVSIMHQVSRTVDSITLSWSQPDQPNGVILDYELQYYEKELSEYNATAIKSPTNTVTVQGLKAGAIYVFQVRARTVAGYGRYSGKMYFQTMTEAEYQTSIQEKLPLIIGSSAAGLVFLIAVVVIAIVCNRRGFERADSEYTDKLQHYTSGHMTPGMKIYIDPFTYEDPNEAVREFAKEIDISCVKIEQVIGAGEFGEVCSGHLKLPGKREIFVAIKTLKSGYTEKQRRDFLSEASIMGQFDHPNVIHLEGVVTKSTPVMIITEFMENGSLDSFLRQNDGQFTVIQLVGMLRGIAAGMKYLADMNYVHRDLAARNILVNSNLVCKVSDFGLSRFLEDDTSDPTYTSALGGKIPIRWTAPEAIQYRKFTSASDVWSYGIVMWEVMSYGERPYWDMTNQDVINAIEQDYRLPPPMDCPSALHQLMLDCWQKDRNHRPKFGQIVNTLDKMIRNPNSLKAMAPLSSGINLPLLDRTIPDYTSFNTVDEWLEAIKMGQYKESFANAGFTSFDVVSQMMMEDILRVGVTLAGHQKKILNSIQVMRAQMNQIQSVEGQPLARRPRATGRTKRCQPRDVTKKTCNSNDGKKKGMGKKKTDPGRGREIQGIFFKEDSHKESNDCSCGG"}, "[3]": {"molecular_target": "CDK2 (human) (UniProt P24941)"}, "[4]": {"molecular_target": "PRKAA1 (human) (UniProt Q13131)"}, "[5]": {"molecular_target": "STK32C (human) (UniProt Q86UX6)", "sequence (Q86UX6 whole entry, looked up)": "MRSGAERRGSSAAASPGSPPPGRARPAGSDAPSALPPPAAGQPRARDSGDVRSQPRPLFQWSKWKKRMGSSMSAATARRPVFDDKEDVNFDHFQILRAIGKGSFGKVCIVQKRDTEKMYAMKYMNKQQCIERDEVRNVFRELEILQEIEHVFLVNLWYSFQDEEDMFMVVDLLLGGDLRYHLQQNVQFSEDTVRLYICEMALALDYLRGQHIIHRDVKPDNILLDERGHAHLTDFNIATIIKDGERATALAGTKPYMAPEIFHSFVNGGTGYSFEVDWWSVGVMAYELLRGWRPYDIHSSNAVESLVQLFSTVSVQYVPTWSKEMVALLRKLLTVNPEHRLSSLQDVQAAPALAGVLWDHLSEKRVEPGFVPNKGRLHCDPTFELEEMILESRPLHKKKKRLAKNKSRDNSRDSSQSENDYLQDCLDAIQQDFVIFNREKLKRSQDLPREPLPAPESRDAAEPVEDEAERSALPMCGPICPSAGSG"}, "[6]": {"molecular_target": "TGFBR2 (human) (UniProt P37173)"}, "[7]": {"molecular_target": "ERBB2 (human) (UniProt P04626)"}, "[8]": {"molecular_target": "DAPK2 (human) (UniProt Q9UIK4)"}, "[9]": {"molecular_target": "GSK3A (human) (UniProt P49840)"}, "[10]": {"tested_on": "RET (human), P07949 [V804L]"}, "[11]": {"tested_on": "KIT (human), P10721 [V559D]", "sequence (P10721 whole entry V559D, looked up)": "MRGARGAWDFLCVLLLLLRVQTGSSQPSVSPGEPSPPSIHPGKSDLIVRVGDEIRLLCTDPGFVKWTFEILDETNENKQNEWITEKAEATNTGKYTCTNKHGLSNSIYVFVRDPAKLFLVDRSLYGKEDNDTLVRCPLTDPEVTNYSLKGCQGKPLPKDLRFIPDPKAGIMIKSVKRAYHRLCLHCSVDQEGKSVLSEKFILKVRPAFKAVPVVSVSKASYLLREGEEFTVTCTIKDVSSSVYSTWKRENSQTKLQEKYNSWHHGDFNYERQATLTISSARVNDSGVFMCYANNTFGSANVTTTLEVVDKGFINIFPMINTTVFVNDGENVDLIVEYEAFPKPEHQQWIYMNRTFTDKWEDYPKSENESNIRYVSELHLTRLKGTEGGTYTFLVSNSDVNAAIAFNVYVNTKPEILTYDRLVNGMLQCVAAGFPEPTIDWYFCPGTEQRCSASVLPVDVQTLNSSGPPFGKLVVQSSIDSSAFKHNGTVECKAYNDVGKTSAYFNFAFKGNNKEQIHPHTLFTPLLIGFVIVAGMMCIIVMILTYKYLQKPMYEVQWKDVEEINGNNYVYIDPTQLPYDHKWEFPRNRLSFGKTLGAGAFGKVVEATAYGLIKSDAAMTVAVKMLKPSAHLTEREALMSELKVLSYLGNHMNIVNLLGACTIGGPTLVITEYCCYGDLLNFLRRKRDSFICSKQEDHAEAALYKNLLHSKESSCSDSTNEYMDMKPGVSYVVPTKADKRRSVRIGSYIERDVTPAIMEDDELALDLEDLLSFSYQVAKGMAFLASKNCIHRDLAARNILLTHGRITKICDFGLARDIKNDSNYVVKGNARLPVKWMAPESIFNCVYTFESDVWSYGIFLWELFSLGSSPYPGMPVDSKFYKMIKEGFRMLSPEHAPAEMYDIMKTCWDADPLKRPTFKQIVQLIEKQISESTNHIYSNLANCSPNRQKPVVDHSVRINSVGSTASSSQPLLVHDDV"}, "[12]": {"molecular_target": "KIT (human) (UniProt P10721)"}, "[13]": {"molecular_target": "CDC42BPB (human) (UniProt Q9Y5S2)"}, "[14]": {"molecular_target": "RPS6KA2 KD1 (human) (UniProt Q15349)"}, "[15]": {"molecular_target": "JAK1 JH2 pseudokinase (human) (UniProt P23458)"}, "[16]": {"molecular_target": "CHUK (human) (UniProt O15111)"}, "[17]": {"molecular_target": "VRK2 (human) (UniProt Q86Y07)"}, "[18]": {"molecular_target": "CDK15 (human) (UniProt Q96Q40)"}, "[19]": {"molecular_target": "NLK (human) (UniProt Q9UBE8)"}, "[20]": {"molecular_target": "PDGFRB (human) (UniProt P09619)", "sequence (P09619 whole entry, looked up)": "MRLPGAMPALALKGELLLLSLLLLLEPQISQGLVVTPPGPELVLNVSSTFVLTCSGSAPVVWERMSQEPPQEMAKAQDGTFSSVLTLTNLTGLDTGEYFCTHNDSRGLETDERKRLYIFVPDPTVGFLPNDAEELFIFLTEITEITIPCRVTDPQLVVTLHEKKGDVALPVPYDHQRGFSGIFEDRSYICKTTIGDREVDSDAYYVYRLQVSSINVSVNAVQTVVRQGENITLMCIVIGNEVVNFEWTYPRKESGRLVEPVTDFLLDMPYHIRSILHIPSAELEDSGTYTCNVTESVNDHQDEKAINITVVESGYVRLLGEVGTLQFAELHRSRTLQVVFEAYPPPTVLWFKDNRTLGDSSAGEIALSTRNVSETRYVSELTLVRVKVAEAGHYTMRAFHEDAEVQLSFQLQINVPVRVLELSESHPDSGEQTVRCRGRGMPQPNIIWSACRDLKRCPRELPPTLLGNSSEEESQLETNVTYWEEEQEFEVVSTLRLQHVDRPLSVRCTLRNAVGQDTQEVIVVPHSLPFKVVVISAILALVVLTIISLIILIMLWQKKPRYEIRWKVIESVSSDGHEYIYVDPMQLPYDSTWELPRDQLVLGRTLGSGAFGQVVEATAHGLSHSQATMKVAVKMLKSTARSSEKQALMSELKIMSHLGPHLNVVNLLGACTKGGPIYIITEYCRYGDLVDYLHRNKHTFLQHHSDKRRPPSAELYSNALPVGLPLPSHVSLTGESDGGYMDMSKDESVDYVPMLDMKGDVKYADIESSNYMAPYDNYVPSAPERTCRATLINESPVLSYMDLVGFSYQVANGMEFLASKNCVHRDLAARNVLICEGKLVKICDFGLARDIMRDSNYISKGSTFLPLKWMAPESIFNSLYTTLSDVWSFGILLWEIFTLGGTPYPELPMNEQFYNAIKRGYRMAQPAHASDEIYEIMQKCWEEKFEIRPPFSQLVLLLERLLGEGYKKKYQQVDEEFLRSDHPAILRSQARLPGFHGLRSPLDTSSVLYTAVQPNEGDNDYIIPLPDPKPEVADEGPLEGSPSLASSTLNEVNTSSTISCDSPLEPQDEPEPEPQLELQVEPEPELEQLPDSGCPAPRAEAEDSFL"}, "[21]": {"molecular_target": "ULK1 (human) (UniProt O75385)"}, "[22]": {"molecular_target": "STK38 (human) (UniProt Q15208)"}, "[23]": {"molecular_target": "FGFR1 (human) (UniProt P11362)"}, "[24]": {"tested_on": "FLT3 (human), P36888 [R834Q]"}, "[25]": {"molecular_target": "FLT3 (human) (UniProt P36888)"}, "[26]": {"molecular_target": "TNNI3K (human) (UniProt Q59H18)"}, "[27]": {"molecular_target": "PRKAA2 (human) (UniProt P54646)"}, "[28]": {"molecular_target": "MATK (human) (UniProt P42679)"}, "[29]": {"molecular_target": "EIF2AK1 (human) (UniProt Q9BQI3)"}, "[30]": {"tested_on": "MET (human), P08581 [Y1235D]"}, "[31]": {"molecular_target": "CaMK1 (human) (UniProt Q14012)"}, "[32]": {"molecular_target": "PRPF4B (human) (UniProt Q13523)"}, "[33]": {"molecular_target": "CSNK1G3 (human) (UniProt Q9Y6M4)"}, "[34]": {"molecular_target": "PRKX (human) (UniProt P51817)"}, "[35]": {"molecular_target": "MAPK11 (human) (UniProt Q15759)"}, "[36]": {"molecular_target": "CAMK1D (human) (UniProt Q8IU85)"}, "[37]": {"molecular_target": "YES1 (human) (UniProt P07947)"}, "[38]": {"molecular_target": "NEK3 (human) (UniProt P51956)"}, "[39]": {"molecular_target": "MAP3K10 (human) (UniProt Q02779)", "sequence (Q02779 whole entry, looked up)": "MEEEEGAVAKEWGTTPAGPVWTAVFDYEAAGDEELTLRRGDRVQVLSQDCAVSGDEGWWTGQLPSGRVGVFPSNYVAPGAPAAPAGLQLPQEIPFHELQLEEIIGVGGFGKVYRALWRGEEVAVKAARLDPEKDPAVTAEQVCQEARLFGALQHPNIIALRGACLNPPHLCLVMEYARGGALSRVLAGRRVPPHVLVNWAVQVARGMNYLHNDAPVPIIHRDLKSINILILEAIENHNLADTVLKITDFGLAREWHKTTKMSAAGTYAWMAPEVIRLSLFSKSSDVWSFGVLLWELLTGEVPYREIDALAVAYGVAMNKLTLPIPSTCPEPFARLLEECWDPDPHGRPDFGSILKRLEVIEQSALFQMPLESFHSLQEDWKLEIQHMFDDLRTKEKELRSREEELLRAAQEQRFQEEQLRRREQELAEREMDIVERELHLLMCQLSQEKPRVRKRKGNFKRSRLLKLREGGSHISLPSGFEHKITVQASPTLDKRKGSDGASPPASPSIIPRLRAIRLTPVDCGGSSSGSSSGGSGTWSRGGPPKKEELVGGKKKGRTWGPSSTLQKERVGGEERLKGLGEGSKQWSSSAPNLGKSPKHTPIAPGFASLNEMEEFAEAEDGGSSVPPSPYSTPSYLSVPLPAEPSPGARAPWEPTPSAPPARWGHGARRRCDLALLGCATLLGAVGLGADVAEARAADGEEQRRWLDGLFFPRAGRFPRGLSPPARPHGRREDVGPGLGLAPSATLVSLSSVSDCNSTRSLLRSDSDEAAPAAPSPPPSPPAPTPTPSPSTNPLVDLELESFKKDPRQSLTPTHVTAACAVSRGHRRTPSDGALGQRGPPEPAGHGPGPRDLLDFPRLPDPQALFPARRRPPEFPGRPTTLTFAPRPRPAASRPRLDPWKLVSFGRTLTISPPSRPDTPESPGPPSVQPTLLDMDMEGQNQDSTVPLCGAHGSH"}, "[40]": {"molecular_target": "SRMS (human) (UniProt Q9H3Y6)", "sequence (Q9H3Y6 whole entry, looked up)": "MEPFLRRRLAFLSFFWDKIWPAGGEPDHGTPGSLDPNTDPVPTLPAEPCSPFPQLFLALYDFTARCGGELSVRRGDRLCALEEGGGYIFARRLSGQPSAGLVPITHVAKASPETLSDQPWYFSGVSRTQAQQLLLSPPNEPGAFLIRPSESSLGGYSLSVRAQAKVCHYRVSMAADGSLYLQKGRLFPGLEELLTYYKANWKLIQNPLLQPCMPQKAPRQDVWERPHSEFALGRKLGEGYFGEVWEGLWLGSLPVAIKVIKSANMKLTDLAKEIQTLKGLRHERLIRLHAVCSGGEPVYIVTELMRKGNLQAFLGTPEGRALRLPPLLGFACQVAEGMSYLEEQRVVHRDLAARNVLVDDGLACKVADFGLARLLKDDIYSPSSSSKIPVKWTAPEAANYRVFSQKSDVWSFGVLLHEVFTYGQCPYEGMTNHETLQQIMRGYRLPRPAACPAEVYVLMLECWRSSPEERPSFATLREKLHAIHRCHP"}, "[41]": {"molecular_target": "STK4 (human) (UniProt Q13043)"}}}
{"smiles": "CNC(=O)c1cc(Oc2ccc(NC(=O)Nc3ccc(Cl)c(C(F)(F)F)c3)cc2)ccn1", "values": [{"measurement": "per cent of control", "setting": "[1]", "value": 100, "unit": "%"}, {"measurement": "per cent of control", "setting": "[2]", "value": 12, "unit": "%"}, {"measurement": "per cent of control", "setting": "[3]", "value": 15, "unit": "%"}, {"measurement": "per cent of control", "setting": "[4]", "value": 32, "unit": "%"}, {"measurement": "per cent of control", "setting": "[5]", "value": 72, "unit": "%"}, {"measurement": "per cent of control", "setting": "[6]", "value": 25, "unit": "%"}, {"measurement": "per cent of control", "setting": "[7]", "value": 100, "unit": "%"}, {"measurement": "per cent of control", "setting": "[8]", "value": 100, "unit": "%"}, {"measurement": "per cent of control", "setting": "[9]", "value": 100, "unit": "%"}, {"measurement": "per cent of control", "setting": "[10]", "value": 0, "unit": "%"}, {"measurement": "per cent of control", "setting": "[11]", "value": 0, "unit": "%"}, {"measurement": "per cent of control", "setting": "[12]", "value": 0, "unit": "%"}, {"measurement": "per cent of control", "setting": "[13]", "value": 100, "unit": "%"}, {"measurement": "per cent of control", "setting": "[14]", "value": 61, "unit": "%"}, {"measurement": "per cent of control", "setting": "[15]", "value": 97, "unit": "%"}, {"measurement": "per cent of control", "setting": "[16]", "value": 93, "unit": "%"}, {"measurement": "per cent of control", "setting": "[17]", "value": 100, "unit": "%"}, {"measurement": "per cent of control", "setting": "[18]", "value": 7.4, "unit": "%"}, {"measurement": "per cent of control", "setting": "[19]", "value": 19, "unit": "%"}, {"measurement": "per cent of control", "setting": "[20]", "value": 0, "unit": "%"}, {"measurement": "per cent of control", "setting": "[21]", "value": 89, "unit": "%"}, {"measurement": "per cent of control", "setting": "[22]", "value": 100, "unit": "%"}, {"measurement": "per cent of control", "setting": "[23]", "value": 3.4, "unit": "%"}, {"measurement": "per cent of control", "setting": "[24]", "value": 12, "unit": "%"}, {"measurement": "per cent of control", "setting": "[25]", "value": 0.05, "unit": "%"}, {"measurement": "per cent of control", "setting": "[26]", "value": 2.4, "unit": "%"}, {"measurement": "per cent of control", "setting": "[27]", "value": 60, "unit": "%"}, {"measurement": "per cent of control", "setting": "[28]", "value": 64, "unit": "%"}, {"measurement": "per cent of control", "setting": "[29]", "value": 100, "unit": "%"}, {"measurement": "per cent of control", "setting": "[30]", "value": 60, "unit": "%"}, {"measurement": "per cent of control", "setting": "[31]", "value": 87, "unit": "%"}, {"measurement": "per cent of control", "setting": "[32]", "value": 94, "unit": "%"}, {"measurement": "per cent of control", "setting": "[33]", "value": 100, "unit": "%"}, {"measurement": "per cent of control", "setting": "[34]", "value": 98, "unit": "%"}, {"measurement": "per cent of control", "setting": "[35]", "value": 0.05, "unit": "%"}, {"measurement": "per cent of control", "setting": "[36]", "value": 88, "unit": "%"}, {"measurement": "per cent of control", "setting": "[37]", "value": 41, "unit": "%"}, {"measurement": "per cent of control", "setting": "[38]", "value": 100, "unit": "%"}, {"measurement": "per cent of control", "setting": "[39]", "value": 85, "unit": "%"}, {"measurement": "per cent of control", "setting": "[40]", "value": 96, "unit": "%"}, {"measurement": "per cent of control", "setting": "[41]", "value": 96, "unit": "%"}]}
{"smiles": "CNC(=O)c1cc(Oc2ccc(NC(=O)Nc3ccc(Cl)c(C(F)(F)F)c3)cc2)cc[n+]1[O-]", "values": [{"measurement": "per cent of control", "setting": "[1]", "value": 63, "unit": "%"}, {"measurement": "per cent of control", "setting": "[2]", "value": 19, "unit": "%"}, {"measurement": "per cent of control", "setting": "[3]", "value": 1.8, "unit": "%"}, {"measurement": "per cent of control", "setting": "[4]", "value": 36, "unit": "%"}, {"measurement": "per cent of control", "setting": "[5]", "value": 87, "unit": "%"}, {"measurement": "per cent of control", "setting": "[6]", "value": 3.1, "unit": "%"}, {"measurement": "per cent of control", "setting": "[7]", "value": 100, "unit": "%"}, {"measurement": "per cent of control", "setting": "[8]", "value": 100, "unit": "%"}, {"measurement": "per cent of control", "setting": "[9]", "value": 100, "unit": "%"}, {"measurement": "per cent of control", "setting": "[10]", "value": 0, "unit": "%"}, {"measurement": "per cent of control", "setting": "[11]", "value": 0, "unit": "%"}, {"measurement": "per cent of control", "setting": "[12]", "value": 0, "unit": "%"}, {"measurement": "per cent of control", "setting": "[13]", "value": 97, "unit": "%"}, {"measurement": "per cent of control", "setting": "[14]", "value": 43, "unit": "%"}, {"measurement": "per cent of control", "setting": "[15]", "value": 96, "unit": "%"}, {"measurement": "per cent of control", "setting": "[16]", "value": 6.5, "unit": "%"}, {"measurement": "per cent of control", "setting": "[17]", "value": 100, "unit": "%"}, {"measurement": "per cent of control", "setting": "[18]", "value": 9.6, "unit": "%"}, {"measurement": "per cent of control", "setting": "[19]", "value": 11, "unit": "%"}, {"measurement": "per cent of control", "setting": "[20]", "value": 0, "unit": "%"}, {"measurement": "per cent of control", "setting": "[21]", "value": 99, "unit": "%"}, {"measurement": "per cent of control", "setting": "[22]", "value": 100, "unit": "%"}, {"measurement": "per cent of control", "setting": "[23]", "value": 9.7, "unit": "%"}, {"measurement": "per cent of control", "setting": "[24]", "value": 9, "unit": "%"}, {"measurement": "per cent of control", "setting": "[25]", "value": 0.1, "unit": "%"}, {"measurement": "per cent of control", "setting": "[26]", "value": 2.4, "unit": "%"}, {"measurement": "per cent of control", "setting": "[27]", "value": 49, "unit": "%"}, {"measurement": "per cent of control", "setting": "[28]", "value": 62, "unit": "%"}, {"measurement": "per cent of control", "setting": "[29]", "value": 100, "unit": "%"}, {"measurement": "per cent of control", "setting": "[30]", "value": 11, "unit": "%"}, {"measurement": "per cent of control", "setting": "[31]", "value": 58, "unit": "%"}, {"measurement": "per cent of control", "setting": "[32]", "value": 99, "unit": "%"}, {"measurement": "per cent of control", "setting": "[33]", "value": 96, "unit": "%"}, {"measurement": "per cent of control", "setting": "[34]", "value": 100, "unit": "%"}, {"measurement": "per cent of control", "setting": "[35]", "value": 0, "unit": "%"}, {"measurement": "per cent of control", "setting": "[36]", "value": 75, "unit": "%"}, {"measurement": "per cent of control", "setting": "[37]", "value": 68, "unit": "%"}, {"measurement": "per cent of control", "setting": "[38]", "value": 100, "unit": "%"}, {"measurement": "per cent of control", "setting": "[39]", "value": 88, "unit": "%"}, {"measurement": "per cent of control", "setting": "[40]", "value": 10, "unit": "%"}, {"measurement": "per cent of control", "setting": "[41]", "value": 42, "unit": "%"}]}
